Data taken from the supplement of paper PMC3974653.
Where “and” joins values, the source holds several entries; their conditions need not be identical. Identical values can stand only once. Counter-ions that a name gives are not always drawn.

How the values were obtained:
[1] = tested on: MTT (mouse pheochromocytoma); assay: efficacy (maximal response) relative to doxorubicin = -100% and DMSO = 0%; higher = less inhibition of viability; conditions: (24 or 48 h)
[2] = tested on: MTT (mouse pheochromocytoma); assay: IC50 of cell viability (ATP content); AC50 where efficacy is positive; conditions: (24 or 48 h)

IC50 of cell viability [2]	Compound	efficacy [1]
8.41 µM	C[n+]1cc2c3c(ccc2c2ccc4cc5c(cc4c21)OCO5)OCO3 [Sanguinarine]	-87.7%
8.41 µM	C=C1C(=O)O[C@@H]2[C@@H]1CC/C(C)=C\CC[C@@]1(C)O[C@H]21 [Parthenolide]	-104%
10.6 µM	O=C(Nc1ccc([N+](=O)[O-])cc1)Nc1ccc([N+](=O)[O-])cc1 [Nicarbazin]	-44.1%
16.8 µM	CCCCC(=O)OCC(=O)[C@]1(O)Cc2c(O)c3c(c(O)c2[C@H](OC2CC(NC(=O)C(F)(F)F)C(O)C(C)O2)C1)C(=O)c1c(OC)cccc1C3=O (stereo not given in full) [Valrubicin]	-78%
11.9 µM	CCCCCCCCCCCCCCCC[N+](C)(C)CC [Mecetronium ethylsulfate]	-78.5%
21.1 µM	Cc1ccc2c(c1)c1c3n2CCNC3CCC1 (stereo not given) [Pirlindole mesylate]	-45.7%
26.6 µM	O=C(Nc1ccc(Br)cc1)c1cc(Br)c(Br)s1 [Tibrofan]	-64.5%
11.9 µM	COc1ccc(CC(N)C(=O)NC2C(CO)OC(n3cnc4c(N(C)C)ncnc43)C2O)cc1.Cl.Cl (stereo not given) [PUROMYCIN HYDROCHLORIDE]	-63.1%
15 µM	CN[C@H]1CC[C@@H](c2ccc(Cl)c(Cl)c2)c2ccccc21 [Sertraline hydrochloride (Zoloft)]	-39.9%
6.68 µM	C[N+]1(CC2COC(c3ccccc3)(C3CCCCC3)O2)CCCCC1 (stereo not given) [OXAPIUM IODIDE]	-60.2%
0.299 µM	CCN1/C(=C/C=C/c2ccc3ccccc3[n+]2CC)C=Cc2ccccc21 [Quinaldine blue]	-34.9%
21.1 µM	C[C@@H]1CN(CCCn2c3ccccc3c3ccccc32)C[C@H](C)N1 [Rimcazole dihydrochloride]	-89.8%
8.41 µM	Nc1ccc2cc3ccc(N)cc3nc2c1 [PROFLAVINE HEMISULFATE]	-91.5%
8.41 µM	CNC(=O)c1cc(Oc2ccc(NC(=O)Nc3ccc(Cl)c(C(F)(F)F)c3)cc2)ccn1 [SORAFENIB TOSYLATE]	-44.4%
2.37 µM	O=C(CCCCCCC(=O)Nc1ccccc1)NO [SUBEROYLANILIDE HYDROXAMIC ACID]	-58.6%
13.3 µM	O=Cc1ccccc1C=O [PHTHARAL]	-54.4%
26.6 µM	COc1cc2c(Nc3ccc(Br)cc3F)ncnc2cc1OCC1CCN(C)CC1 [VANDETANIB]	-102%
0.531 µM	CCCOc1ccc2[nH]c(NC(=O)OC)nc2c1 [OXIBENDAZOLE]	-39%
0.422 µM	CC[C@@]1(O)C(=O)OC/C2=C1/C=C/3N(CC4=CC5=C(C=CC=C5[N+]([O-])=O)N=C34)C2=O [RUBITECAN]	-54.5%
5.08 µM	NNCCc1ccccc1 [Phenelzine sulfate]	-52.6%
0.531 µM	COC(=O)Nc1nc2cc(C(=O)c3cccs3)ccc2[nH]1 [Nocodazole]	-60.2%
10.1 µM	Oc1ccc(OCc2ccccc2)cc1 [Monobenzone]	-55.4%
0.0376 µM	CC(=O)O[C@H]1C(=O)[C@@]2(C)[C@H]([C@H](OC(=O)c3ccccc3)[C@]3(O)CC(OC(=O)C(O)C(NC(=O)c4ccccc4)c4ccccc4)C(C)=C1C3(C)C)[C@]1(OC(C)=O)CO[C@@H]1C[C@@H]2O (stereo not given in full) [Paclitaxel]	-50.9%
18.8 µM	C#C[C@]1(O)CC[C@H]2[C@@H]3CCc4cc(OC5CCCC5)ccc4[C@H]3CC[C@@]21C [Quinestrol]	-61.1%
26.6 µM	Cc1cc(O)c2ccccc2c1O [Menadiol]	-94.6%

Further lines, the compound ahead of its results:

Compound	IC50 of cell viability [2]	efficacy [1]
COCC(=O)NC1=CC(SC2=CC=CC=C2)=CC=C1\N=C(/NC(=O)OC)NC(=O)OC [FEBANTEL]	18.8 µM	-48%
O=C(CCl)c1ccc(Cl)cc1Cl [2,2',4'-Trichloroacetophenone]	8.63 µM and 3.76 µM	-84.4% and -71.5%
CC(C)(Cc1c[nH]c2ccccc12)NCC(O)COc1ccccc1C#N (stereo not given) [BUCINDOLOLUM]	11.9 µM	-41.7%
CCNC(=O)[C@@H]1CCCN1C(=O)[C@H](CCCNC(=N)N)NC(=O)[C@H](CC(C)C)NC(=O)[C@@H](Cc1c[nH]c2ccccc12)NC(=O)[C@H](Cc1ccc(O)cc1)NC(=O)[C@H](CO)NC(=O)[C@H](Cc1c[nH]c2ccccc12)NC(=O)[C@H](Cc1c[nH]cn1)NC(=O)[C@@H]1CCC(=O)N1 [DESLORELIN ACETATE]	2.99 µM	-88.5%
[Hg+][c]1ccccc1 [PHENYLMERCURIC BORATE]	2.99 µM	-91.5%
CCC(C(=O)C(C)C(O)C(C)CCc1ccc(C)c(O)c1C(=O)[O-])C1OC(CC)(C2CC[C@@](O)(CC)C(C)O2)CC1C.[Na+] (stereo not given in full) [LASALOCID SODIUM]	4.22 µM	-40.1%
COc1cc(/C=C/C(=O)CC(=O)/C=C/c2ccc(O)c(OC)c2)ccc1O [Curcumin]	16.8 µM	-79.7%
Cc1c(C(=O)O)c(O)cc2c1C(=O)c1c(O)c([C@H]3O[C@H](CO)[C@@H](O)[C@H](O)[C@H]3O)c(O)c(O)c1C2=O [COCHINEAL]	16.8 µM	-45.4%
[H]/N=C(/c1ccc(OCCCCCC)c2ccccc12)N(CCCC)CCCC [BUNAMIDINE HYDROCHLORIDE]	18.8 µM	-96.3%
NC/1=N/C(S)C/2\N=C/NC2=N1 (stereo not given) [6-Thioguanine (6-TG)]	21.1 µM	-78.6%
CC/1=C/C(=O)N(O)/C(=C1)C2CCCCC2 [Ciclopirox ethanolamine]	4.53 µM	-84.9%
CCCSc1ccc2[nH]c(NC(=O)OC)nc2c1 [Albendazole]	0.718 µM	-57.9%
C=CCNC1=C2C[C@@H](C)C[C@H](OC)[C@H](O)[C@@H](C)/C=C(\C)[C@H](OC(N)=O)[C@@H](OC)C=C/C=C(\C)C(=O)NC(=CC1=O)C2=O [17-Allylamino-geldanamycin]	4.22 µM	-80.6%
CCCCCCCCCCCCCCCC[N+](C)(C)C [Cetyltrimethylammonium bromide]	13.3 µM	-89.1%
CN(C)C1=CC=C(C=C1)C(C2=CC=C(C=C2)N(C)C)=C/3\C=C/C(/C=C3)=[N+](C)C [Chlorure de methylrosanilinum]	23.7 µM	-111%
C[C@]12O[C@H](C[C@]1(O)CO)n1c3ccccc3c3c4c(c5c6ccccc6n2c5c31)CNC4=O [LESTAURTINIB]	2.66 µM	-83.2%
CC(C)C[C@@H](NC(=O)[C@@H](Cc1ccccc1)NC(=O)c1cnccn1)B(O)O [BORTEZOMIB]	0.596 µM	-74.6%
[O-][n+]1ccccc1SSc1cccc[n+]1[O-] [Dipyrithione]	1.5 µM	-81%
C[C@@]12C(=O)OC(=O)[C@@]1(C)[C@H]1CC[C@H]2O1 [Cantharidin]	1.28 µM	-39%
COC(=O)[C@H]1[C@H]2C[C@@H]3c4[nH]c5ccccc5c4CCN3C[C@H]2C[C@@H](OC(=O)c2cc(OC)c(OC)c(OC)c2)[C@@H]1OC [DESERPIDINE]	13.3 µM	-92.6%
Cl.CCC1=C2CN3C(=O)\C4=C(/C=C3/C2=NC5=CC=C(OC(=O)N6CCC(CC6)N7CCCCC7)C=C15)[C@@](O)(CC)C(=O)OC4 [IRINOTECAN HYDROCHLORIDE]	11.9 µM	-66.8%
C/C(=C(/CCOC(=O)C(C)C)SS/C(CCOC(=O)C(C)C)=C(\C)N(C=O)Cc1cnc(C)nc1N)N(C=O)Cc1cnc(C)nc1N [BISIBUTHIAMINE]	21.1 µM	-43.4%
CCOc1ccc(/N=N/c2ccc(N)cc2N)cc1 [Ethoxazene hydrochloride]	11.9 µM	-57.4%
CCOc1ccc(Cc2nccc3cc(OCC)c(OCC)cc23)cc1OCC [Ethaverine hydrochloride]	3.6 µM	-60%
CCCCCCCC[N+](C)(C)CCCCCCCC [Dioctyldimethylammonium chloride]	0.531 µM	-48.6%
Cc1cc(N)c2ccccc2[n+]1CCCCCCCCCC[n+]1c(C)cc(N)c2ccccc21 [Dequalinium dichloride]	11.4 µM	-81.5%
CCCCCCCC[N+](C)(C)CCCCCCCC [Dioctyl Dimethyl Ammonium Chloride]	0.119 µM	-39.1%
CN1CC[C@@H]([C@@H](O)C1)C2=C(O)C=C(O)C3=C2O\C(=C/C3=O)C4=C(Cl)C=CC=C4 [Flavopiridol hydrochloride hydrate]	1.88 µM	-71.3%
Cl.CC(C)(C)[C@]1(O)CC[N@@]2C[C@H]3C4=C(CCC5=CC=CC(=C35)[C@@H]2C1)C=CC=C4 [(?)-Butaclamol hydrochloride]	21.1 µM	-70.8%
CCCCCCCCCCCCCCCCOCCOCCOCCOCCOCCOCCOCCOCCOCCOCCOCCOCCOCCOCCOCCOCCOCCOCCOCCOCCO [CETOMACROGOL EMULSIFYING WAX]	16.8 µM	-80.5%
